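Cells were grown in 96-well plates and exposed to each compound for 48 hours at five concentrations; endpoints were interpolated linearly between bracketing concentrations, or set to the highest concentration if not reached. GI50 marks 50% less growth.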 The source made the active and inactive calls. Cut-off read from the data, not from the text of the source: active = GI50 up to about 1.1 µM and inactive = higher.

Consider 11 compounds from ChEMBL document CHEMBL1201862, “PubChem BioAssay data set” (2004).

Among the test systems are HOP-92; UO-31; 786-0; SF-268; CAKI-1; TK-10; HCT-116; UACC-257; A549; A498; OVCAR-5; NCI-H460; CCRF-CEM; COLO 205; MDA-MB-231; M14; SF-295; MOLT-4; Hs-578T; OVCAR-8.
Experiment in all cases: NCI tumour cell line growth inhibition, 48 h

Consider `CSc1cnc2ccccc2c1SC1CN(Cc2ccccc2)c2ccccc2C1=O` (stereo not given), for which the GI50 in the test on HOP-92 is > 100 µM (inactive); in the test with UO-31, > 100 µM (inactive); with 786-0, > 100 µM (inactive); in the test with SF-268, 54.8 µM (inactive); in the test with CAKI-1, > 100 µM (inactive); in the test on TK-10, > 100 µM (inactive). For the same compound, the GI50 with HCT-116, with UACC-257, in the test on A549, with A498, in the test with OVCAR-5 and in the test on NCI-H460 was > 100 µM (inactive) throughout. Also, the GI50 in the test on CCRF-CEM, with COLO 205, in the test on MDA-MB-231, with M14, in the test with SF-295 and with MOLT-4 was > 100 µM (inactive) throughout.

As for `O=C(CC(C(=O)c1cccs1)c1ccsc1)c1ccco1` (stereo not given), the GI50 was > 100 µM (inactive) with HOP-92; 21.2 µM (inactive) in the test with UO-31; 33.7 µM (inactive) with 786-0; 19.1 µM (inactive) with Hs-578T; 27.6 µM (inactive) in the test with SF-268; 29.1 µM (inactive) with CAKI-1. Further, the GI50 in the test on TK-10 was 32.4 µM (inactive); in the test with HCT-116, 21.2 µM (inactive); in the test with UACC-257, 37.9 µM (inactive); in the test with A549, 21.6 µM (inactive); in the test with OVCAR-8, 32.3 µM (inactive); in the test on A498, 27.5 µM (inactive). Moreover, the GI50 with OVCAR-5 is 11.5 µM (inactive); with NCI-H460, 24.2 µM (inactive); with CCRF-CEM, 19.1 µM (inactive); in the test with COLO 205, 8.07 µM (inactive); with M14, 19.4 µM (inactive); in the test with SF-295 it was 39.7 µM (inactive). Further, in the test on MOLT-4, the GI50 was > 100 µM (inactive).

On to `Cc1ccc(-c2n[nH]c(=O)n2N2C(=O)C=CC2=O)cc1`, for which the GI50 in the test on 786-0, with Hs-578T, in the test on SF-268, with CAKI-1, with TK-10 and in the test on HCT-116 was > 100 µM (inactive) each time. Further, the GI50 in the test with UACC-257, with A549, with OVCAR-8, in the test on A498, in the test on OVCAR-5 and in the test on NCI-H460 was > 100 µM (inactive) in each case. Moreover, the GI50 with CCRF-CEM, in the test on COLO 205, in the test with MDA-MB-231, with M14, with SF-295 and with MOLT-4 was > 100 µM (inactive) each time.

Turning to `COc1ccc(/C=N/n2c(Cc3ccccc3)n[nH]c2=O)cc1`, the GI50 in the test on UO-31 is > 100 µM (inactive); with 786-0 it was > 100 µM (inactive); in the test on Hs-578T, 32.3 µM (inactive); in the test on SF-268 it was 42.3 µM (inactive); in the test on CAKI-1, > 100 µM (inactive); in the test with HCT-116 it was > 100 µM (inactive). For the same compound, the GI50 in the test on UACC-257 was > 100 µM (inactive); with A549 it was > 100 µM (inactive); in the test on OVCAR-8, > 100 µM (inactive); in the test on A498, 32.4 µM (inactive); in the test on OVCAR-5 it was > 100 µM (inactive); with NCI-H460, > 100 µM (inactive). The GI50 was > 100 µM (inactive) in the test on CCRF-CEM; > 100 µM (inactive) in the test with COLO 205; 22.6 µM (inactive) in the test with MDA-MB-231; > 100 µM (inactive) in the test with M14; 39.8 µM (inactive) in the test on SF-295; > 100 µM (inactive) in the test on MOLT-4.

As for `N#CCCN(CCN(C(=O)Nc1ccccc1)c1ccccc1)C(=O)Nc1ccccc1`, the GI50 is > 63 µM (inactive) with HOP-92; 31.2 µM (inactive) in the test on UO-31; > 100 µM (inactive) with 786-0; > 100 µM (inactive) in the test with SF-268; > 43 µM (inactive) in the test on CAKI-1; 61.8 µM (inactive) in the test on TK-10. Also, the GI50 in the test with HCT-116 is 54.6 µM (inactive); in the test on UACC-257, > 100 µM (inactive); in the test on A549, 58.2 µM (inactive); with OVCAR-8, 64.3 µM (inactive); in the test on A498, > 100 µM (inactive); in the test with OVCAR-5, > 100 µM (inactive). Besides, the GI50 in the test with NCI-H460 is > 67.5 µM (inactive); in the test on CCRF-CEM, 17.7 µM (inactive); in the test on COLO 205, 53.5 µM (inactive); with MDA-MB-231, > 100 µM (inactive); in the test on M14, 77.6 µM (inactive); in the test on SF-295 it was 62.5 µM (inactive). Besides, the GI50 in the test on MOLT-4 was 28.8 µM (inactive).

As for `CC[N+]1(C)CCC(O)(c2ccc(Cl)c(Cl)c2)C(C(=O)c2ccc(Cl)c(Cl)c2)C1` (stereo not given), the GI50 in the test with HOP-92, in the test on UO-31, in the test on 786-0, in the test with Hs-578T, in the test on SF-268 and with CAKI-1 was > 10 µM (inactive) in each case. Moreover, the GI50 in the test with TK-10, in the test with HCT-116, in the test on UACC-257, with A549, in the test with OVCAR-8 and in the test with A498 was > 10 µM (inactive) in each case. Moreover, the GI50 was > 10 µM (inactive) in the test with OVCAR-5; > 10 µM (inactive) in the test with NCI-H460; 2.61 µM (inactive) with CCRF-CEM; > 10 µM (inactive) with COLO 205; > 10 µM (inactive) in the test on M14; > 10 µM (inactive) in the test with SF-295. The GI50 with MOLT-4 is > 10 µM (inactive).

For `Cn1c2c3ccccc3nc-2c(O)c2ccccc21` [HYDROXYCRYPTOLEPINE], the GI50 was > 100 µM (inactive) in the test with HOP-92; > 100 µM (inactive) in the test on UO-31; > 100 µM (inactive) with 786-0; 0.735 µM (active) in the test with SF-268; 8.91 µM (inactive) in the test with CAKI-1; > 100 µM (inactive) with TK-10. Moreover, the GI50 with HCT-116 was 49.4 µM (inactive); in the test on UACC-257, > 100 µM (inactive); in the test with A549, > 100 µM (inactive); in the test on OVCAR-8, > 100 µM (inactive); in the test on A498, > 100 µM (inactive); with OVCAR-5, > 100 µM (inactive). The GI50 is 59.2 µM (inactive) in the test on NCI-H460; 90.6 µM (inactive) in the test with CCRF-CEM; 83.2 µM (inactive) in the test on COLO 205; 85.9 µM (inactive) with MDA-MB-231; > 100 µM (inactive) in the test on M14; > 100 µM (inactive) in the test on SF-295. The GI50 with MOLT-4 is 27.7 µM (inactive).

On to `C=C(C)c1nc(C#N)c(N)o1`, for which the GI50 in the test on UO-31, with 786-0, in the test on Hs-578T, in the test on SF-268, in the test on CAKI-1 and in the test with TK-10 was > 100 µM (inactive) each time. For the same compound, the GI50 with HCT-116, with UACC-257, in the test with A549, with OVCAR-8, with OVCAR-5 and with NCI-H460 was > 100 µM (inactive) throughout. Moreover, the GI50 in the test on CCRF-CEM, in the test with COLO 205, in the test with MDA-MB-231, in the test on M14, in the test with SF-295 and with MOLT-4 was > 100 µM (inactive) throughout.

Regarding `Cc1ccccc1Nc1cn(COCc2ccccc2)c(=O)[nH]c1=O`, the GI50 with HOP-92 was > 100 µM (inactive); with UO-31, 52.4 µM (inactive); in the test on 786-0, > 100 µM (inactive); with Hs-578T, 54.3 µM (inactive); in the test on SF-268, 70.6 µM (inactive); in the test on CAKI-1, > 100 µM (inactive). Further, the GI50 with HCT-116 is 49.7 µM (inactive); in the test with UACC-257, > 100 µM (inactive); with A549, 81.3 µM (inactive); in the test on A498, > 100 µM (inactive); in the test on OVCAR-5 it was > 100 µM (inactive); in the test on NCI-H460, 69.5 µM (inactive). In addition, the GI50 was 91.6 µM (inactive) in the test on CCRF-CEM; 50.9 µM (inactive) with COLO 205; > 100 µM (inactive) in the test with M14; > 100 µM (inactive) in the test with SF-295; 55.2 µM (inactive) in the test on MOLT-4.

In the case of `c1ccc2c(c1)[n-]n1c3ccc4nonc4c3n[n+]21`, the GI50 in the test on HOP-92, in the test with UO-31, with 786-0, in the test with CAKI-1, with HCT-116 and in the test on UACC-257 was > 100 µM (inactive) throughout. Besides, the GI50 was > 100 µM (inactive) in the test with A549; > 100 µM (inactive) in the test on OVCAR-8; > 100 µM (inactive) with A498; > 100 µM (inactive) in the test with OVCAR-5; 93.3 µM (inactive) in the test with NCI-H460; > 100 µM (inactive) in the test on CCRF-CEM. Moreover, the GI50 with COLO 205, with MDA-MB-231, in the test with M14, with SF-295 and in the test on MOLT-4 was > 100 µM (inactive) each time.

As to `O=C(Nc1ccn(C2CCC(CO)O2)c(=O)n1)c1ccccc1` (stereo not given), the GI50 in the test with UO-31, with 786-0, in the test on Hs-578T, with SF-268, in the test on CAKI-1 and with TK-10 was > 100 µM (inactive) in each case. The GI50 in the test on HCT-116 is > 100 µM (inactive); in the test with UACC-257, > 100 µM (inactive); with A549, > 100 µM (inactive); in the test with OVCAR-8, > 100 µM (inactive); with A498 it was 50.4 µM (inactive); in the test on OVCAR-5, > 100 µM (inactive). Moreover, the GI50 with CCRF-CEM is 34.1 µM (inactive); with COLO 205 it was > 100 µM (inactive); with MDA-MB-231, > 100 µM (inactive); in the test with M14 it was > 100 µM (inactive); in the test with SF-295, > 100 µM (inactive); with MOLT-4, > 100 µM (inactive).
